In one data set the test system is CISH. The data set can be described thus: CISH expression in NK cells after electroporation, protein lysates on Wes machine with CISH-specific antibody. The format is cell-based, human. Particulars: with Cas9 mRNA, compared to matched donor samples electroporated with Cas9 mRNA alone; five days after electroporation; n=3 donors. The protocol: NK cells (3×10^6) from three donors (donors 070, 380, and 437) stimulated with aAPCs were electroporated using the optimized NEON electroporation conditions with 10 μg Cas9 mRNA and 10 μg CISH gRNA. Five days after electroporation, cells were harvested and protein lysates were run with a CISH-specific antibody on a Wes machine (Protein Simple, San Jose, Calif.) and CISH expression (area under peak) normalized to ([…] was analyzed using Compass Software (Protein Simple, Bio-Techne, Minneapolis, Minn.). Results are shown in FIG. 9.

For the next data set, the system named is PD1. As to the kind of experiment: CRISPR/Cas9 gene editing at PD1 in primary human NK cells, Surveyor nuclease activity assay. The format is cell-based. Particulars: chemically modified gRNA and Cas9 mRNA; 72 hours post electroporation. The protocol:
For FIGS. 1-7 (as appropriate), activity of the gRNAs was quantified by a Surveyor Digest, gel electrophoresis, and densitometry (Guschin et al., Methods Mol. Biol., 2010, 649:247-256).
Unstimulated or stimulated CD3^−CD56^+ NK cells were nucleofected using the AMAXA nucleofection system (Human Macrophage Kit, Lonza Group, Basel, Switzerland). Cells were counted and resuspended at a density of 3.0×10^6 cells in 100 μL of Resuspension buffer, and the following reagents were added to the cells and buffer prior to nucleofection: 10 μg, 15 μg, or 20 μg mRNA Cas9 (TriLink. BioTechnologies, San Diego, Calif.), and 10 μg, 20 μg, or 30 μg gRNA (TriLink BioTechnologies, San Diego, Calif.). Three days after nucleofection, cells were harvested and gRNA activity was measured as above.

For another data set, the system named is TIGIT. As to the kind of experiment: TIGIT expression in knockout NK cells by flow cytometry. It counts as cell-based, human. Particulars: with Cas9 mRNA, compared to matched donor samples electroporated with Cas9 mRNA alone; five days after electroporation; n=2 donors. The protocol:
3×10^6 NK cells from two donors (donors 407 and 613) stimulated with aAPCs were electroporated using the optimized NEON electroporation conditions with 10 μg Cas9 mRNA and 10 μg gRNA. Five days after electroporation, cells were harvested and stained with antibodies for CD56, CD3, TIGIT, and SYTOX Blue viability dye. Cells were gated on single cells (FSC-H vs FSC-A), CD56^+, CD3^−, SYTOX Blue^−, and TIGIT^+. TIGIT expression in knockout cells was compared to matched donor samples electroporated with Cas9 mRNA alone.

Experimental findings from patent US20200208111A1, “GENOME-EDITED NK CELL AND METHODS OF MAKING AND USING” (REGENTS OF THE UNIVERSITY OF MINNESOTA, priority 2016, published 2020) are described below.

With “CISH gRNA: guide RNA GGGUUCCAUUACGGCCAGCG (SEQ ID NO: 14) (listed as RNA, chemistry not given here)”, in the data set on CISH, the CISH expression result is reported as “decreased”. As for “PD1 gRNA: guide RNA CCUGCUCGUGGUGACCGAAG (SEQ ID NO: 11), chemically modified (chemically modified, pattern not given here)”, the “Gene modification of NK cells” value in the data set on PD1 was “gene modification of NK cells was induced”. As for “TIGIT gRNA: guide RNA GACCUGGGUCACUUGUGCCG (SEQ ID NO: 13) (listed as RNA, chemistry not given here)”, in the data set with TIGIT, the TIGIT expression result is reported as “decreased”.
